The values below come from ChEMBL document CHEMBL1201862, “PubChem BioAssay data set” (2004).

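Growth conditions: 96-well plates. Treatment: test compound, 48 hours, 5 concentrations. Analysis: linear interpolation between bracketing concentrations; unreached endpoints set to highest concentration. GI50: concentration for 50% inhibition of growth.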 Calls of active or inactive are those of the source. Rule as the data show it: active = GI50 up to about 1.1 µM and inactive = higher.

Holding throughout (test): NCI tumour cell line growth inhibition, 48 h
Test [1] has as its system MOLT-4.
Test [2] relates to A549.
For test [3], the system named is RXF 393.
For test [4], the system named is HT-29.
In test [5] the test system is OVCAR-4.
Test [6] has as its system IGROV-1.
The test system of test [7] is CAKI-1.
Test [8] has as its system HCT-15.
Test [9] concerns LOX IMVI.
For test [10], the system named is SF-295.
Test [11] deals with SF-268.
The test system of test [12] is SN12C.
Test [13] has as its system HCC 2998.
Test [14] concerns A498.
In test [15] the test system is NCI-H226.
In test [16] the test system is NCI-H460.
For test [17], the system named is EKVX.
Test [18] concerns K562.
The subject of test [19] is HOP-62.
The test system of test [20] is TK-10.

In the case of `CC(=O)OC1CC2(O)C(CCC3(C)C(c4ccc(=O)oc4)CCC32O)C2(C)C1=CC(O)C1OC12` (stereo not drawn), the GI50 in [1] was 0.0281 µM (active); in [2] it was 0.028 µM (active); in test [3], 0.0331 µM (active); in [4], 0.135 µM (active); in test [5] it was 0.0457 µM (active); in test [6], 0.0653 µM (active). Besides, the GI50 in test [7] is 0.0324 µM (active); in [8], 0.053 µM; in test [9], 0.0687 µM (active); in test [10] it was 0.0366 µM (active); in test [11], 0.0295 µM (active); in [12], 0.0349 µM (active). For the same molecule, the GI50 is 0.114 µM (active) in [13]; 0.113 µM (active) in [14]; 0.115 µM (active) in test [15]; 0.0279 µM (active) in test [16]; 0.042 µM (active) in [17]; 0.0467 µM (active) in test [18]. The GI50 in test [19] is 0.05 µM (active).

With `C=C1C(=O)O[C@H]2[C@H]1[C@@H](OC(=O)C=C(C)C)CC1=C[C@@H](C[C@@]3(C)O[C@@H]23)OC1=O`, the GI50 is 2.15 µM (inactive) in test [1]; 22 µM (inactive) in test [2]; 1.83 µM (inactive) in test [3]; 4.14 µM (inactive) in test [4]; 6.32 µM (inactive) in test [5]; 10.8 µM (inactive) in test [6]. In addition, the GI50 in [7] was 3.14 µM (inactive); in test [8], 1.93 µM; in test [9], 2.27 µM (inactive); in test [10], 13.4 µM (inactive); in [12], 4.54 µM (inactive); in test [13], 17.4 µM (inactive). Also, the GI50 is 7.33 µM (inactive) in test [14], 21.2 µM (inactive) in test [15], 4.23 µM (inactive) in [17] and 27.9 µM (inactive) in test [19].

`CN(C)CCNC(=O)c1cc(Cl)cc2ccc(-c3ccccc3)nc12`: the GI50 in [1] was 0.447 µM (active); in test [2], 2.87 µM (inactive); in test [3] it was 3.86 µM (inactive); in test [4], 2.22 µM (inactive); in test [5], 3.92 µM (inactive); in test [6], 3.18 µM (inactive). Moreover, the GI50 was 2.04 µM (inactive) in [7]; 2.85 µM in [8]; 2.32 µM (inactive) in test [9]; 3.86 µM (inactive) in [10]; 4.57 µM (inactive) in [11]; 3.02 µM (inactive) in test [12]. Further, the GI50 was 3.54 µM (inactive) in test [13]; 5.48 µM (inactive) in [14]; 2.49 µM (inactive) in test [15]; 2 µM (inactive) in test [16]; 5.12 µM (inactive) in test [17]; 1.78 µM (inactive) in test [18]. In addition, the GI50 in test [19] is 3.13 µM (inactive).

Turning to `O=P1(c2ccccc2)Nc2ccccc2SSc2ccccc2N1`, the GI50 is 18.7 µM (inactive) in test [1]; 19.6 µM (inactive) in test [2]; 19.4 µM (inactive) in test [3]; 19.2 µM (inactive) in test [4]; 18.6 µM (inactive) in test [5]; 19.7 µM (inactive) in [6]. Moreover, the GI50 in test [7] is 18.2 µM (inactive); in [8], 17 µM; in test [9], 16.2 µM (inactive); in [10], 14.9 µM (inactive); in test [11], 17.5 µM (inactive); in test [12], 17.8 µM (inactive). Also, the GI50 in test [13] was 20.7 µM (inactive); in test [14] it was 20.4 µM (inactive); in test [15], 17 µM (inactive); in [16] it was 18.4 µM (inactive); in test [17] it was 15.2 µM (inactive); in [18], 18.2 µM (inactive). Moreover, the GI50 in test [19] is > 10 µM (inactive).

For `Cc1cc(C)nc(NS(=O)(=O)c2ccc(Nc3c4ccccc4nc4c(C(=O)N5CCN(CCOS(C)(=O)=O)CC5)cccc34)cc2)n1`, the GI50 in test [1] is 60.3 µM (inactive); in [2], > 100 µM (inactive); in test [3] it was > 100 µM (inactive); in [4], > 100 µM (inactive); in [5] it was > 100 µM (inactive); in test [6], > 100 µM (inactive). The GI50 is > 100 µM (inactive) in [7]; more than 100 µM in [8]; > 100 µM (inactive) in test [10]; > 100 µM (inactive) in test [20]; > 100 µM (inactive) in test [11]; > 100 µM (inactive) in [12]. Besides, the GI50 in test [13] is > 100 µM (inactive); in test [14], > 100 µM (inactive); in test [15], > 100 µM (inactive); in test [16], 84.9 µM (inactive); in [18] it was 53.2 µM (inactive); in [19], > 100 µM (inactive).

Consider `C=CCC(O[Si](C)(C)C(C)(C)C)c1cc(O[Si](C)(C)C(C)(C)C)ccc1OC` (stereo not drawn), for which the GI50 is > 70.8 µM (inactive) in test [1]; > 64.1 µM (inactive) in [2]; 58.9 µM (inactive) in [3]; > 100 µM (inactive) in test [4]; > 67.3 µM (inactive) in test [5]; > 100 µM (inactive) in test [6]. The GI50 in test [7] was 40.7 µM (inactive); in test [8] it was more than 74.5 µM; in test [9] it was > 94.2 µM (inactive); in test [10] it was > 71.8 µM (inactive); in test [11], > 85.9 µM (inactive); in test [12] it was > 87.3 µM (inactive). Besides, the GI50 was > 100 µM (inactive) in test [13]; 46.9 µM (inactive) in [14]; > 53.6 µM (inactive) in test [15]; > 70 µM (inactive) in test [16]; > 100 µM (inactive) in test [17]; > 100 µM (inactive) in test [18]. Besides, the GI50 in test [19] was > 100 µM (inactive).

For the molecule `C=CCc1cccc(/C=N\N/C(N)=N/O)c1O`, the GI50 in test [1] was 3.1 µM (inactive); in test [2], 3.61 µM (inactive); in test [3], 2.99 µM (inactive); in [4] it was 6.59 µM (inactive); in test [5], 5.16 µM (inactive); in test [6] it was 4.59 µM (inactive). Moreover, the GI50 in [7] is 3.46 µM (inactive); in [8], 2.19 µM; in [9], 3.29 µM (inactive); in [10], 2.31 µM (inactive); in [11], 3.03 µM (inactive); in [12], 4.8 µM (inactive). The GI50 in test [13] is 3.21 µM (inactive); in [14], 7.76 µM (inactive); in test [15] it was 3.18 µM (inactive); in test [16], 3.2 µM (inactive); in test [17] it was 3.06 µM (inactive); in test [18], 3.3 µM (inactive). The GI50 in test [19] was 2.28 µM (inactive).

Take `COC(=O)[C@@H]1C=C[C@H](NC(C)=O)C1`: the GI50 in [1], in test [3], in [4], in test [5], in test [6] and in test [7] was > 100 µM (inactive) in each case. For the same molecule, the GI50 in [8] is more than 100 µM; in test [9] it was > 100 µM (inactive); in test [10], > 100 µM (inactive); in test [20] it was > 100 µM (inactive); in [12], > 100 µM (inactive); in [13] it was > 100 µM (inactive). Further, the GI50 in test [14], in test [15], in test [16], in [18] and in [19] was > 100 µM (inactive) each time.

On to `CN1CCN(c2cc(-c3cc4ccccc4o3)oc(=O)c2C#N)CC1`, for which the GI50 in test [1] was 53 µM (inactive); in test [2] it was 70.8 µM (inactive); in test [3], 72.6 µM (inactive); in test [4], 78 µM (inactive); in [5], 93.5 µM (inactive); in test [6], 88.9 µM (inactive). For the same molecule, the GI50 in test [7] was 36.1 µM (inactive); in test [8], 99.8 µM; in test [9] it was 48.3 µM (inactive); in [10], > 100 µM (inactive); in test [20], 59.4 µM (inactive); in test [11] it was 51.2 µM (inactive). Further, the GI50 in test [12] was 53.3 µM (inactive); in [13], > 100 µM (inactive); in [14], 63.8 µM (inactive); in [15], 14.2 µM (inactive); in test [16], 58.1 µM (inactive); in [17], 45.8 µM (inactive). Also, in [18], the GI50 was 66.5 µM (inactive).

As to `COc1cc(CCCOC2OC(COC3OCC(O)C(O)C3O)C(O)C(O)C2O)cc2cc(-c3ccc4c(c3)OCO4)oc12` (stereo not drawn), the GI50 is > 175 µM (inactive) in [1]; > 175 µM (inactive) in [2]; > 94 µM (inactive) in test [3]; > 175 µM (inactive) in [4]; > 175 µM (inactive) in test [5]; > 175 µM (inactive) in [6]. The GI50 is > 175 µM (inactive) in [7]; more than 175 µM in test [8]; > 175 µM (inactive) in test [9]; > 175 µM (inactive) in test [10]; > 175 µM (inactive) in test [11]; 81.3 µM (inactive) in test [12]. Besides, the GI50 was > 98.4 µM (inactive) in test [13]; > 27.7 µM (inactive) in [14]; > 175 µM (inactive) in test [15]; > 175 µM (inactive) in test [16]; > 175 µM (inactive) in test [17]; > 175 µM (inactive) in [18]. The GI50 in [19] is > 175 µM (inactive).

As to `Oc1ccc(NCn2c(=S)sc3ccccc32)cc1`, the GI50 in [1] was 34.2 µM (inactive); in test [2], > 100 µM (inactive); in [3], > 100 µM (inactive); in test [4], > 100 µM (inactive); in test [5], 91 µM (inactive); in test [6], 33.2 µM (inactive). Moreover, the GI50 in [7] is > 100 µM (inactive); in test [8], more than 100 µM; in [9], > 100 µM (inactive); in test [10] it was > 100 µM (inactive); in test [20], > 100 µM (inactive); in test [11] it was > 100 µM (inactive). Further, the GI50 in [12] was > 100 µM (inactive); in [13] it was > 100 µM (inactive); in test [14], > 100 µM (inactive); in test [16] it was > 100 µM (inactive); in test [17], > 100 µM (inactive); in test [18] it was 22.3 µM (inactive). The GI50 in [19] was > 100 µM (inactive).
